Measurements published in patent publication US20060002932A1, “Methods and compositions for enhancement of immunity by in vivo depletion of immunosuppressive cell activity” (priority 2004, published 2006).
Values joined by “and” are separate entries in the source; they are usually repeats but may differ in a detail not shown here. Equal values may be shown once. “Also recorded” adds a separate entry of the source.

Key:
[1] = Clinical toxicity in cancer patients; type: in vivo, human
Protocol: All subjects received a total of three intradermal injections of total tumor RNA-transfected DC. The injections were given intradermally at biweekly intervals and consisted of 1×10^7 cells suspended in 200 μL 0.9% sodium chloride (Abbott Laboratories, Abbott Park, Ill.) at each vaccination cycle. Following treatment, subjects were evaluated for toxicity, immunological and clinical response to therapy. Follow-up visits occurred biweekly for three visits, monthly for one visit, then every 3 months or until the subject was removed from the study.
Having shown that regulatory T cell elimination is capable of enhancing T-cell responses in vitro, a clinical study was initiated to analyze the efficacy of this strategy to a) eliminate regulatory T cells and b) to enhance a vaccine-induced T-cell response in end-stage cancer patients. Seven patients with metastatic renal cell (RCC), and one subject with disseminated ovarian carcinoma (OVA) were treated in an institutional review board (IRB) and Food and Drug Administration (FDA)-approved pilot study. […] PBMCs were also obtained from a subject who received DAB389IL-2 only under separate informed consent.
Treatment of patients was performed following written informed consent as part of an Institutional Review Board- and Federal Drug Administration-approved protocol. Patients with histologically-confirmed metastatic RCC were eligible for this study. One patient with disseminated ovarian carcinoma was included and treated on a compassionate basis. All patients were required to have adequate hepatic, renal, and neurological function, a life expectancy of >6 months, and a Karnofsky performance status of >70%. Patients must have had recovered from all toxicities related to any prior therapy and have not received any chemotherapy, radiation therapy, or immunotherapy for at least 6 weeks prior to study entry. Excluded from the study were patients with CNS metastases, with a history of autoimmune disease, with serious intercurrent chronic or acute illnesses. Patients on immunosuppressive agents were also excluded. […] All subjects received 3 intradermal injections of tumor RNA-transfected DC. The injections were given intradermally at biweekly intervals and consisted of 1×10^7 cells suspended in 200 μL 0.9% sodium chloride at each vaccination. Following treatment, subjects were evaluated for clinical toxicity, immunological and clinical responses. Due to regulatory restrictions and, in some subjects, limited access to tumor tissue, no tumor biopsies were performed.
Having shown that Treg elimination is capable of enhancing T-cell responses in vitro, a clinical study was initiated to test the Treg depletion concept in a human vaccination setting. Eleven patients including 10 with metastatic RCC and one with disseminated ovarian carcinoma (OVA) were treated in an Institutional Review Board (IRB) and Food and Drug Administration (FDA)-approved study.

[2] = system: responder cells (PBMC) in MLR; test: Allogeneic DC-stimulated mixed lymphocyte reaction (MLR) proliferation; type: cell-based, human
[3] = system: tumor-specific T cells; test: Interferon-γ ELISPOT of vaccine-induced tumor-specific T cells in patients; type: in vivo, human
Protocol: PBMC were cultured overnight in RPMI 1640 medium supplemented with 10% FCS. […] After washing, spots were counted using an automated Zeiss KS Elispot Compact reader (Carl Zeiss Inc., Minneapolis, Minn.).
In order to determine whether DAB389IL-2-mediated regulatory T cell depletion is capable of augmenting vaccine-induced CTL responses in vivo, Interferon-γ ELISPOT analysis was used to determine the frequencies of vaccine-induced, tumor-specific T cells from PBMC samples collected prior to (white bars) and two weeks after (grey bars) the third vaccination (study week 8). Purified CD8^+ T cells were isolated from pre- and post-vaccination PBMCs and were cultured overnight with tumor RNA transfected DC targets. As controls, PBMC RNA or benign renal epithelium (RE)-derived RNA-transfected DCs were used for short-term antigenic stimulation. Visible spots were then counted using an automated ELISPOT reader. […] In contrast, a significant increase of tumor-specific T cells was consistently observed in the treated subjects after vaccination. […]
Pre- and post-treatment T-cell analysis was performed by Interferon-γ ELISPOT on all patients who completed immunotherapy. Increases of antigen-specific CD4^+ and CD8^+ T cells after vaccination were compared using the Wilcoxon matched-pairs signed rank test, analyzing the null hypothesis that the rates of change in T-cell response were equivalent prior to and after therapy. A two-sided p-value of <0.05 was considered statistically significant.
In order to determine whether DAB389IL-2-mediated Treg depletion is capable of augmenting vaccine-induced CD8^+ and CD4^+ T-cell responses in cancer patients, Interferon-γ ELISPOT analyses were performed to determine the frequencies of vaccine-induced, tumor-specific T cells from PBMC samples collected before and two weeks after the third vaccination. CD8^+ and CD4^+ T cells were isolated from pre- and post-vaccination PBMC and cultured overnight with tumor RNA-transfected DC targets. As controls, autologous PBMC RNA or autologous benign renal epithelium (RE)-derived RNA-transfected DC were used for short-term antigenic stimulation. As exemplified by the 3 study subjects shown in FIG. 10A, only background levels of PBMC-specific T cells were observed before (white bars) or after vaccination (grey bars).

[4] = system: CD4^+CD25^int memory T-cell pool; details: after DAB389IL-2 administration; fluM1, CMV, tetanus toxoid
[5] = 6 RCC patients, DAB389IL-2 plus RCC RNA-transfected DC
[6] = per patient, DAB389IL-2 4 days prior to tumor RNA-transfected DC vaccination

denileukin diftitox [DAB389IL-2]
reduction in absolute neutrophil counts (ANC) ([1]; average, 5 of 6 evaluable subjects): 10% | decrease in absolute neutrophil counts (ANC) ([1]; one subject): 20% | ALT elevations ([1]; single i.v. dose 18 μg/kg): transient, grade II ALT elevations in one subject; also recorded: transient grade II serum alanine aminotransferase (ALT) elevations (n=1) | constitutional symptoms ([1]; single i.v. dose 18 μg/kg): Grade I constitutional symptoms in two subjects; also recorded: grade I constitutional symptoms such as low-grade fever and malaise (n=4) | serum rheumatoid factor ([1]; single i.v. dose 18 μg/kg): grade I elevation of serum rheumatoid factor (n=1) | proliferation of responder cells ([2]; DAB389IL-2 added two days after initiation of the MLR): completely abrogated the proliferation of responder cells | inhibitory effect of Treg added to MLR ([2]; pre-incubation of Treg with DAB389IL-2 5 nM): significantly abrogated their inhibitory effect | median increase in tumor-specific CD4^+ T cells [3, 5]: 7.2 fold | median increase in tumor-specific CD8^+ T cells [3, 5]: 7.9 fold | tumor-specific T-cell response after DAB389IL-2 alone ([3]; DAB389IL-2 only, no vaccine): did not increase a tumor-specific CTL response in vivo; also recorded: did not significantly increase | tumor-specific (CD8^+) T cells vs vaccination alone ([3]; DAB389IL-2 plus vaccination compared with vaccine alone): significantly higher numbers of tumor-specific CD8^+ T cells | increase in tumor-specific CTL frequencies ([3]; Example 2, subjects receiving combined treatment): up to 16 fold | CD4^+ T-cell responses vs vaccination alone ([3]; combined therapy, RCC patients, p=0.055): trend towards improved CD4^+ T-cell responses | ELISPOT (Fold increase after vaccination) CD4^+ [3, 6]: 7.6 fold and 6.3 fold and 2.2 fold and 9.7 fold and 31.0 fold and 6.8 fold and 4.5 fold | ELISPOT (Fold increase after vaccination) CD8^+ [3, 6]: 16.0 fold and 12.5 fold and 5.4 fold and 7.4 fold and 7.8 fold (2×) and 8.0 fold | longitudinal vaccine-induced CD8^+ T-cell response ([3]; subject 02-DAB vs 11-RCC): significantly enhanced and also prolonged CD8^+ T-cell response | antigen-specific proliferative reactivities against recall antigens [4]: unchanged reactivities
